Data taken from US20250213647A1, “CHEMOKINE RECEPTORS AND ALPHA1 ADRENERGIC RECEPTORS/VASOPRESSIN RECEPTORS 1A HETEROMERS AS DRUG TARGETS FOR DISEASE” (UNIVERSITY OF SOUTH FLORIDA, priority 2022, published 2025).

Experiments:
CCR2 [1] = target: T1, CCR2 (Homo sapiens, UniProt P41597); assay: Gαi activation assay (TRUPATH BRET), HEK293T cells transfected with CCR2 plus pcDNA3 (CCR2 alone); type: cell-based; conditions: cells transfected with CCR2 alone; 10 μM PE or PT; FIG. 4B, 4E
Experimental: HEK293T cells were plated in a 6-well plate and transfected with 0.2 μg each of Gαi1-Rluc8, Gβ3 and Gγ9-GFP2 (Trupath) together with 0.2 μg of mouse or human CCR2 with either pcDNA3.1 or α1b-AR. One day after transfection, cells were trypsinized and replated to 96-well poly-L lysine precoated plates. After overnight incubation, cells were replaced with 0.1% glucose/PBS. Prolume Purple (NanoLight Tech.) or coelenterazine 400a in a final concentration of 5 μM were added in experiments with human or mouse CCR2, respectively, and incubated at room temperature for 3 min. Ligands at various concentrations were added to cells and incubated at room temperature for 5 min before luminescence was measured at 410 nm and 515 nm. […] The BRET changes were calculated by subtracting the BRET signal of untreated cells.

CCR2 [2] = target: T1, CCR2; assay: Chemotaxis assay, THP-1 cells toward CCL2 (CCR2-mediated); type: cell-based; set-up: host or cells: THP-1; conditions: CCL2 10 nM, mean±SE, read-out: IC50 for inhibition of CCR2-mediated chemotaxis
Experimental: (§1) Cell migration was measured employing the Neuroprobe (Gaithersburg, MD, USA) ChemoTx® Disposable Chemotaxis System. A 96-well Boyden-chamber (30 μL/well, 8 μm pores, 1×10^5 pores/cm^2 pore density) was selected for all chemotaxis experiments. Bottom wells of the Boyden-chamber were loaded with 30 μL of test substances at various concentrations. Top wells of the membrane were loaded with 25 μL of THP-1 cells, THP-1_ADRA1B^KO, wild type THP-1 cells after clonal expansion (=control for THP-1_ADRA1B^KO) or freshly isolated monocytes (200 cells/μL). THP-1 cells were suspended in depleted RPMI1640 (0.5% HyClone™ fetal bovine serum, Sigma); Freshly isolated monocytes were suspended in RPMI1640 (0.5% human platelet poor plasma, Sigma). After 3 hours, transmigrated cells were counted utilizing the Cytation 1 plate reader (BioTek) by direct imaging in high contrast bright field (4×) and post-imaging particle analyses with Gen5 (v3.05) Imaging & Microscopy Software (BioTek). The chemotactic index (CI) was calculated as the ratio of cells that transmigrated in the presence versus the absence of the test solutions.

[3] = tested on: α1B/D-AR, CCR1, CCR2, CXCR4, CCR8; assay: Proximity ligation assay, individual receptors on THP-1 cells; conditions: 10 μM, 30 min at 37° C., FIG. 6; for cell surface expression of α1B/D-AR, CCR1, CCR2 and CXCR4 (PLA signals): vs vehicle
CCR2 [4] = target: T1, CCR2; assay: BRET assay for β-arrestin recruitment, HEK293T with CCR2-Rluc and β-arrestin-YFP without α1b-AR; type: cell-based; conditions: 10 μM PE, PT or 100 nM INCB3284, FIG. 5C
Experimental: (§2) β-arrestin recruitment was measured by BRET, as described (Armando, 2014; Berchiche, 2011). In brief, HEK293T cells were plated in a 6-well plate and transfected with 0.1 μg of CCR2-RluII and 1.9 μg β-arrestin-YFP with 0.1 μg pcDNA3.1 or α1b-AR. One day after transfection, cells were re-plated into 96-well poly-L lysine precoated plates. After overnight incubation, cells were replaced with 0.1% glucose/PBS. Coelenterazine H in a final concentration of 5 μM was added to cells and incubated at room temperature for 3 min. […] The BRET changes were calculated by subtracting the BRET signal of untreated cells.

CCR2:α1b-AR heteromers [5] = target: T2, CCR2:α1b-AR heteromers (Homo sapiens, UniProt P35368+P41597); assay: BRET assay for β-arrestin recruitment, HEK293T co-expressing CCR2-Rluc, β-arrestin-YFP and α1b-AR; type: cell-based; set-up: expressed in transfected cells; conditions: CCL2 plus 10 μM ligand; FIG. 5D
Experimental: as §2

CCR2:α1b-AR heteromers [6] = target: T2, CCR2:α1b-AR heteromers; assay: PRESTO-Tango β-arrestin recruitment assay, HTLA cells with CCR2-Tango plus α1b-AR; type: cell-based; set-up: Tango module of the TANGO vector (C); expressed in transfected cells; host or cells: HTLA
Experimental: The assays were performed as described previously (Albee, 2017; Gao, 2022; Albee, 2018; Eby, 2017; Cheng, 2017). HTLA cells were seeded in a 6-well plate and transfected with 750 ng FLAG-CCR2-Tango together with 750 ng pcDNA3.1 or HA-α1b-AR using TransIT-2020 Transfection Reagent. The next day, cells (75,000 cells/well) were plated onto poly-L-Lysine pre-coated 96-well plates and allowed to attach to the plate surface for at least 4 hours prior to treatment. Cells were treated with receptor ligands at the concentrations indicated in the figure legends for 2 h and then replaced with fresh full medium and incubated overnight at 37° C., 5% CO2 in a humidified environment. The following morning, medium was replaced with a 100 μL 1:10 mixture of Bright-Glo (Promega) and PBS. Plates were then incubated at room temperature for 10 min before measuring luminescence on a Biotek Synergy II plate reader. Relative luminescence units (RLU) are expressed as fold changes of RLU vs unstimulated cells.

CCR2 [7] = target: T1, CCR2; set-up: host or cells: THP-1; conditions: previous finding (Enten, 2022); cited from earlier work
CXCR4 [8] = conditions: previous observations (Gao, 2018); cited from earlier work
[9] = tested on: leukocyte infiltration into dorsal air pouches; assay: Murine air pouch model, leukocyte infiltration; type: in vivo, C57BL/6 mice; conditions: co-injected into the air pouch; phenylephrine 10-100 mg/kg, phentolamine 5-50 mg/kg; 24 h; FIG. 9B-D
Experimental: All procedures were performed according to the National Institutes of Health Guidelines for Use of Laboratory Animals and were approved by the Institutional Animal Care and Use Committee of the University of South Florida (IS00010570). Male and female C57BL/6 mice (20-25 g) were obtained from Envigo (Indianapolis, IN). Six days prior to the start of the experiments, mice were anesthetized with 1.7% sevoflurane, the dorsal cervical/thoracic region was shaved, disinfected with 70% ethanol and 3 mL of sterile air were injected subcutaneously (s.c.) to create an air pouch. […] 5 ml ice cold lavage fluid was injected into each air pouch using a syringe with a 23-G, 1-inch needle, the air pouch was gently massaged for 60 seconds, the lavage fluid was harvested using the same syringe and needle and the recovered volume was recorded. […] Erythrocytes in the cell pellets were lysed with Invitrogen 1× RBC lysis buffer and the harvested air pouch cells analyzed by flow cytometry.
Harvested air pouch cells were incubated with APC-conjugated anti-mouse CD45 or APC-conjugated immunoglobulin G 2B (IgG2B; isotype control) for 145 min in the dark at room temperature. […] Cells were then washed again, resuspended in PBS, and the cell-associated light scatter and fluorescence were determined with a LSRII instrument (Becton Dickinson). […]

CCR2 [10] = target: T1, CCR2; assay: Chemotaxis assay, human monocytes toward CCL2 (CCR2-mediated); type: cell-based; set-up: host or cells: THP-1; conditions: mean±SE, read-out: IC50 for inhibition of CCR2-mediated chemotaxis
Experimental: as §1

CCR8 = assay: Chemotaxis assay, human monocytes toward CCL1 (CCR8-mediated); type: cell-based
Experimental: as §1

CXCR4 [11] = assay: Chemotaxis assay, human monocytes toward CXCL12 (CXCR4-mediated); type: cell-based; conditions: mean±SE, read-out: IC50 for inhibition of CXCR4-mediated chemotaxis
Experimental: as §1

[12] = tested on: CR heteromerization partners of α1B/D-ARs (CCR1, CCR2, CXCR4); assay: Chemotaxis assay, human monocytes, CR heteromerization partners of α1B/D-ARs taken together; type: cell-based; conditions: FIG. 17B
Experimental: as §1

CCR1 = assay: Chemotaxis assay, human monocytes toward CCL23 (CCR1-mediated); type: cell-based; conditions: mean±SE, read-out: IC50 for inhibition of CCR1-mediated chemotaxis
Experimental: as §1

T2 sequence (P41597 whole entry): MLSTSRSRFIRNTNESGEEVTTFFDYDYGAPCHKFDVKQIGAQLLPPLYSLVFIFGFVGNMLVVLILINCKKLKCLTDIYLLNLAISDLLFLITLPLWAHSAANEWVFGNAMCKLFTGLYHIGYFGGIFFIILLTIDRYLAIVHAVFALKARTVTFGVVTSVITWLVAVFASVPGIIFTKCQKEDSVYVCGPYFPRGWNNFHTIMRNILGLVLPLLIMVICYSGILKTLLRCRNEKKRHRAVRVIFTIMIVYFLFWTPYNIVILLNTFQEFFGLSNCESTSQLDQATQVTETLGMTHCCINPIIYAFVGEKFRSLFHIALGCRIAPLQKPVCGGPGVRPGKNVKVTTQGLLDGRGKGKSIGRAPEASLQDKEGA
T2 sequence (P35368 whole entry): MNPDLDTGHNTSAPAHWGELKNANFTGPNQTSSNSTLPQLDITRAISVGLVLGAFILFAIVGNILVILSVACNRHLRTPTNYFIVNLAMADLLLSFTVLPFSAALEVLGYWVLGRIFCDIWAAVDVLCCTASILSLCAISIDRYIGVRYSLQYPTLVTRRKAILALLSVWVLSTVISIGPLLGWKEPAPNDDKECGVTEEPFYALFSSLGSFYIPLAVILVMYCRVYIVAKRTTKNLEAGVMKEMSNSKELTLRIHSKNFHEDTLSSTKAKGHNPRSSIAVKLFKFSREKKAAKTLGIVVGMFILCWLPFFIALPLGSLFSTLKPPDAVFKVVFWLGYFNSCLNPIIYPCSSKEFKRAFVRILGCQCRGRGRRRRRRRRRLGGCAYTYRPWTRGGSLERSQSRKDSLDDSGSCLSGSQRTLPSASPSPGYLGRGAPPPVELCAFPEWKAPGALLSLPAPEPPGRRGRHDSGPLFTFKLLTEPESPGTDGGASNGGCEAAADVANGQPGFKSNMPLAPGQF
T1 sequence (P41597 whole entry): as the sequence (P41597 whole entry) above

Row | Top plateau, β-arrestin recruitment BRET in the presence of the ligand (CCR2:α1b-AR heteromers [5]) | effect on CCL2-induced β-arrestin recruitment to CCR2 (CCR2:α1b-AR heteromers [6]; 1 μM PT, FIG. 5B) | β-arrestin recruitment to CCR2-Tango by the ligand (CCR2:α1b-AR heteromers [6]; cells co-transfected with CCR2-Tango plus α1b-AR, FIG. 5A) | Compound | effect on CCL2-induced Gαi1 activation (CCR2 [1]) | IC50 (CCR2 [2]) | cell surface expression of α1B/D-AR, CCR1, CCR2 and CXCR4 (PLA signals) [3] | effect on the CCL2-induced BRET signal (CCR2-Rluc / β-arrestin-YFP) (CCR2 [4]) | binding affinity of CCR2 for CCL2 (CCR2 [7]) | CXCR4-mediated chemotaxis of primary human vascular smooth muscle cells (CXCR4 [8]) | leukocyte infiltration induced by LPS, CCL2 or CXCL12 [9] | expression of CCR8 (PLA signals) [3] | efficacy to induce β-arrestin recruitment to CCR2 (CCR2:α1b-AR heteromers [6]; agonist alone) | increase of the efficacy of CCL2 to recruit β-arrestin to CCR2 (CCR2:α1b-AR heteromers [6]; co-stimulated with CCL2 and 1 μM PE vs CCL2 alone) | efficacy of CCL2 to recruit β-arrestin to CCR2 in the presence of the ligand (CCR2:α1b-AR heteromers [6]; co-stimulated with CCL2 and 1 μM PE, FIG. 5B) | IC50 (CCR2 [10]) | CCL1-induced chemotaxis (CCR8) | IC50 (CXCR4 [11]) | inhibition of chemotaxis mediated via CR heteromerization partners of α1B/D-ARs [12] | IC50 (CCR1)
1 | 0.061±0.002 | did not affect | had no effect | Cc1ccc(N(CC2=NCCN2)c2cccc(O)c2)cc1 [phentolamine] | did not affect | 2.7 ± 3.5 nM | did not affect | not affected | did not affect | inhibit | inhibited in a dose-dependent manner |  |  |  |  |  |  |  |  | 
2 |  |  |  | CNC[C@H](O)c1cccc(O)c1 [phenylephrine] | did not affect | 7.5 ± 7.7 nM | reduced | not affected | did not affect | inhibit | inhibited in a dose-dependent manner | not affected | 2.4±0.14 fold change RLU | 3 fold | 130±12 fold change RLU | 37 ± 26 nM | not affected | 6 ± 3 nM | 60-77% | 12 ± 8 nM
